Experimental data from US7256205B2, “Nitrosated and nitrosylated H2 receptor antagonist compounds, compositions and methods of use” (NitroMed, Inc., priority 1998, dated 2007).
“Also recorded” adds a separate entry of the source.

Tested on: gastric lesions produced by the ethanol/HCl mixture
Assay: ethanol/HCl mixture-induced gastric lesion test in rats
Assay type: in vivo, Male Sprague Dawley rats
Settings: oral gavage 30 min before 60% ethanol in 150 mM HCl, lesions scored 60 min after
Method: The ethanol/HCl mixture-induced gastric lesion test in rats described by Takeuchi et al, J. Pharmacol. Exp. Ther., 286: 115-121 (1998), was used to evaluate the gastric lesion activity. Male Sprague Dawley rats (Charles River Laboratories, Wilmington, Mass.) weighing 230-250 g were used for the experiments. The rats were housed with laboratory chow and water ad libitum prior to the study. The rats were fasted for 24 hours with free access to water and then dosed by oral gavage with vehicle or with the test compounds given at a volume of 0.5 ml/100 g body weight. Thirty minutes after oral dosing all the rats received 1 ml of a solution of 60% ethanol in 150 mM HCl intragastrically. Food was withheld after dosing. Sixty minutes after ethanol/HCl, rats were euthanized by pre-charged CO2. The stomachs were dissected along the greater curvature, washed with a directed stream of 0.9% saline and pinned open on a sylgard based petri dish for examination of the hemorrhagic lesions. Gastric lesion score was expressed in mm and calculated by summing the length of each lesion as described by Al-Ghamdi et al, J. Int. Med. Res., 19: 2242 (1991). Results are expressed as the mean±standard error of the mean. Statistical analysis were conducted using ANOVA test followed by a Student-Newman-Keuls post-hoc test using the Abacus Concepts, Super Anova computer program (Abacus Concepts, Inc., Berkeley, Calif.).

CN/C(=N/CCSCc1nc[nH]c1C)NC#N [Cimetidine, reference compound]
inhibition of the formation of gastric lesions (gastric lesion score) relative to vehicle alone (160 μmol/kg): failed to significantly inhibit the formation of gastric lesions; also recorded: did not significantly inhibit the formation of gastric lesions | inhibition of the formation of gastric lesions (gastric lesion score) relative to vehicle alone (320 μmol/kg): failed to significantly inhibit the formation of gastric lesions; also recorded: did not significantly inhibit the formation of gastric lesions

CNC(=NCCSCc1ncn(C(=O)CC2(SN=O)C3CC4CC(C3)CC2C4)c1C)NC#N (stereo not shown) [Example 1, (2Z)-2-aza-3-(methylamino)-3-((2-((5-methyl-1-(2-(2-(nitrosothio)adamantan-2-yl)acetyl)imidazol-4-yl)methylthio)ethyl)amino)prop-2-enenitrile]
inhibition of the formation of gastric lesions (gastric lesion score) relative to vehicle alone (160 μmol/kg): significantly inhibited the formation of gastric lesions | inhibition of the formation of gastric lesions (gastric lesion score) relative to vehicle alone (320 μmol/kg): significantly inhibited the formation of gastric lesions
